Experiments:
[1] = tested on: Human Oral Mucosa Explant Tissues; experiment: Effect of final gel pH on anthocyanin uptake into human oral mucosa explant tissues; format: in vitro ADME; conditions: 10% w/w FBR gel; for Anthocyanin uptake, Gel pH 3.5, Avg. ± SEM / Anthocyanin uptake, Gel pH 6.5, Avg. ± SEM: average of eleven explant samples; for % change 3.5 to 6.5, Avg. ± SEM: average of explant samples
Description: Anthocyanin content in sera, saliva, and tissue explants was evaluated by an HPLC-MS assay. The respective samples (sera, saliva or tissue homogenates) were dissolved in 90% solvent A (water plus 1% formic acid) and 10% solvent B (acetonitrile plus 1% formic acid) and then separated on a Symmetry C18 reversed-phase column and analyzed using a Waters 2695 gradient HPLC separation module equipped with a 996 photodiode-array (PDA) UV/visible absorbance detector (Milford, Mass.). The solvent system consisted of a step gradient from 90% A to 50% B over 15 minutes, and the absorption spectra were recorded from 200-800 nm with the inline PDA detector. Mass spectrometry was conducted on a quadrupole ion tunnel mass spectrometer equipped with a Z-spray ESI source. Explant protein levels were determined by the Lowry method, using bovine γ-globulin as the standard protein [Lippman et al., 1993]. Tissue explants, specifically human oral mucosal explants, were used to determine the in vitro effects of FBR content and pH on anthocyanin uptake. Human oral tissues for the tissue explant studies were obtained from consenting volunteers who were undergoing elective oral surgery procedures. To confirm “no pathologic diagnosis”, a portion of each of these tissues was submitted for light microscopic evaluation. […] Tissues for explant experiments were immediately placed in an artificial saliva transport medium, which also served as the incubation medium for the gel absorption studies. The composition of the artificial saliva used for tissue transport and incubation was (final concentrations): sodium carboxymethylcellulose (0.5%), sorbitol (165 mM), NaCl (14 mM), KCl (16 mM), calcium chloride dehydrate (1.0 mM), MgCl2 (0.63 mM), Trizma hydrochloride (2.0 mM). Tissues from eight donors were used for preliminary studies to compare the penetration of anthocyanins from the 5% berry gel and the 10% FBR gel, both at a final pH of 6.5. In order to account for heterogeneity among human donors, tissue samples were hemisected. One tissue portion treated with 5% and the other with 10% FBR gels. One gram of gel (containing either 5% or 10% w/w FBR) was placed on the epithelial surface of the explant, followed by gently rubbing of the site for 30 seconds to facilitate uptake. Explants were then placed into artificial saliva, incubated for 30 minutes (37° C., 5% CO2), and then frozen at −80° C. until HPLC-mass spectroscopy analyses as previously reported [Rodrigo et al., in press]. Tissue preparation for HPLC analyses consisted of homogenization of the entire oral mucosal specimen, removal of an aliquot for sample protein level determination, followed by the addition of collagenase type II (0.1 mg/mL, GIBCO, Grand Island, N.Y.) and 1% formic acid. Samples were then placed on a Sep Pack (Millipore, Billerica, Mass.), eluted with methanol, and dried under argon gas. Additional oral mucosal explant studies were conducted to compare the effect of FBR gel pH on absorption into oral mucosal explants. Tissues from eleven donors were used for these studies, and handling was as described above with the exception that all gels contained 10% w/w FBR and were formulated at a final pH of 3.5 or 6.5. […] Large differences (up to 15-fold) in detectable anthocyanin levels were found in the gel treated donor tissues; findings that likely reflect the extensive heterogeneity within human tissues that affects tissue penetrative abilities.

[2] = Human pharmacokinetic study: anthocyanins in saliva and peripheral blood after topical gel application; format: in vivo; conditions: 1.0 g 5% FBR Gel, pH 6.5 topical to floor of mouth, saliva collected 2-5 min after application
Description: Anthocyanin content in sera, saliva, and tissue explants was evaluated by an HPLC-MS assay. The respective samples (sera, saliva or tissue homogenates) were dissolved in 90% solvent A (water plus 1% formic acid) and 10% solvent B (acetonitrile plus 1% formic acid) and then separated on a Symmetry C18 reversed-phase column and analyzed using a Waters 2695 gradient HPLC separation module equipped with a 996 photodiode-array (PDA) UV/visible absorbance detector (Milford, Mass.). The solvent system consisted of a step gradient from 90% A to 50% B over 15 minutes, and the absorption spectra were recorded from 200-800 nm with the inline PDA detector. Mass spectrometry was conducted on a quadrupole ion tunnel mass spectrometer equipped with a Z-spray ESI source. Explant protein levels were determined by the Lowry method, using bovine γ-globulin as the standard protein [Lippman et al., 1993].
Next, evaluation of anthocyanin uptake into human oral mucosa from FBR gels prepared as described in Example 1 was undertaken. For in-vivo studies, participation of human subjects was conducted in accordance with an IRB approved protocol. […] For the phamacokinetic analyses, nine consenting adult volunteers dried the anterior floor of their mouth, placed 1.0 g of 5% berry gel (pH 6.5), and massaged the gel in place for 30 seconds to facilitate uptake. Two minutes after gel application saliva was collected for the next three minutes. Peripheral blood was drawn five minutes after gel application. Following clotting, sera samples were collected, and both the sera and saliva samples were stored at −80° C. until LC-MS analysis as described below.
All nine participants had detectable anthocyanin levels of three anthocyanins (cyanidin 3-rutinoside, cyanidin 3-xylosylrutinoside, cyanidin 3-glucoside) in either their saliva or blood, and 4 donors had detectable levels of two anthocyanins (cyanidin 3-rutinoside and cyanidin 3-xylosylrutinoside) in their peripheral blood. Saliva from eight of the nine donors contained detectable levels of either two (cyanidin 3-rutinoside and cyanidin 3-xylosylrutinoside-4 donors) or three anthocyanins (4 donors).

SMILES: OC[C@H]1O[C@@H](Oc2cc3c(O)cc(O)cc3[o+]c2-c2ccc(O)c(O)c2)[C@H](O[C@@H]2OC[C@@H](O)[C@H](O)[C@H]2O)[C@@H](O)[C@@H]1O.[Cl-] [Cyanidin 3-sambubioside, cyanidin 3-sambubioside]
- Anthocyanin uptake, Gel pH 3.5, Avg. ± SEM [1]: 1.9 pmol per mg tissue
- Anthocyanin uptake, Gel pH 6.5, Avg. ± SEM [1]: 5.3 pmol per mg tissue
- % change 3.5 to 6.5, Avg. ± SEM [1]: 89.0%
- % change 3.5 to 6.5 ([1]; explant sample 001): 319.4%
- Anthocyanin uptake, Gel pH 3.5 ([1]; explant sample 001): 7.4 pmol per mg tissue
- Anthocyanin uptake, Gel pH 6.5 ([1]; explant sample 001): 30.9 pmol per mg tissue
- % change 3.5 to 6.5 ([1]; explant sample 002): 427.3%
- Anthocyanin uptake, Gel pH 3.5 ([1]; explant sample 002): 0.6 pmol per mg tissue
- Anthocyanin uptake, Gel pH 6.5 ([1]; explant sample 002): 2.9 pmol per mg tissue
- % change 3.5 to 6.5 ([1]; explant sample 003): −19.7%
- Anthocyanin uptake, Gel pH 3.5 ([1]; explant sample 003): 1.8 pmol per mg tissue
- Anthocyanin uptake, Gel pH 6.5 ([1]; explant sample 003): 1.4 pmol per mg tissue
- % change 3.5 to 6.5 ([1]; explant sample 004): −66.4%
- Anthocyanin uptake, Gel pH 3.5 ([1]; explant sample 004): 1.3 pmol per mg tissue
- Anthocyanin uptake, Gel pH 6.5 ([1]; explant sample 004): 0.4 pmol per mg tissue
- % change 3.5 to 6.5 ([1]; explant sample 005): −61.8%
- Anthocyanin uptake, Gel pH 3.5 ([1]; explant sample 005): 0.3 pmol per mg tissue
- Anthocyanin uptake, Gel pH 6.5 ([1]; explant sample 005): 0.1 pmol per mg tissue
- % change 3.5 to 6.5 ([1]; explant sample 006): 330.8%
- Anthocyanin uptake, Gel pH 3.5 ([1]; explant sample 006): 2.3 pmol per mg tissue
- Anthocyanin uptake, Gel pH 6.5 ([1]; explant sample 006): 10.1 pmol per mg tissue
- % change 3.5 to 6.5 ([1]; explant sample 007): −14.6%
- Anthocyanin uptake, Gel pH 3.5 ([1]; explant sample 007): 0.4 pmol per mg tissue
- Anthocyanin uptake, Gel pH 6.5 ([1]; explant sample 007): 0.4 pmol per mg tissue
- Anthocyanin uptake, Gel pH 3.5 ([1]; explant sample 008): 0.0 pmol per mg tissue
- Anthocyanin uptake, Gel pH 6.5 ([1]; explant sample 008): 1.9 pmol per mg tissue
- % change 3.5 to 6.5 ([1]; explant sample 009): 256.9%
- Anthocyanin uptake, Gel pH 3.5 ([1]; explant sample 009): 2.9 pmol per mg tissue
- Anthocyanin uptake, Gel pH 6.5 ([1]; explant sample 009): 10.3 pmol per mg tissue
- % change 3.5 to 6.5 ([1]; explant sample 010): −92.9%
- Anthocyanin uptake, Gel pH 3.5 ([1]; explant sample 010): 2.0 pmol per mg tissue
- Anthocyanin uptake, Gel pH 6.5 ([1]; explant sample 010): 0.1 pmol per mg tissue
- % change 3.5 to 6.5 ([1]; explant sample 011): −100%
- Anthocyanin uptake, Gel pH 3.5 ([1]; explant sample 011): 2.1 pmol per mg tissue
- Anthocyanin uptake, Gel pH 6.5 ([1]; explant sample 011): 0.0 pmol per mg tissue

SMILES: OC[C@H]1O[C@@H](Oc2cc3c(O)cc(O)cc3[o+]c2-c2ccc(O)c(O)c2)[C@H](O)[C@@H](O)[C@@H]1O [cyanidin 3-glucoside]
- Anthocyanin concentration in saliva ([2]; patient 104): 11.2 pmol/mL
- Anthocyanin concentration in saliva ([2]; patient 105): 9.7 pmol/mL
- Anthocyanin concentration in saliva ([2]; patient 107): 19.7 pmol/mL
- Anthocyanin concentration in saliva ([2]; patient 109): 22.8 pmol/mL
- Anthocyanin uptake, Gel pH 3.5, Avg. ± SEM [1]: 29.6 pmol per mg tissue
- Anthocyanin uptake, Gel pH 6.5, Avg. ± SEM [1]: 50.2 pmol per mg tissue
- % change 3.5 to 6.5, Avg. ± SEM [1]: 85.6%
- % change 3.5 to 6.5 ([1]; explant sample 001): 131.6%
- Anthocyanin uptake, Gel pH 3.5 ([1]; explant sample 001): 128.1 pmol per mg tissue
- Anthocyanin uptake, Gel pH 6.5 ([1]; explant sample 001): 296.6 pmol per mg tissue
- % change 3.5 to 6.5 ([1]; explant sample 002): 36.2%
- Anthocyanin uptake, Gel pH 3.5 ([1]; explant sample 002): 13.6 pmol per mg tissue
- Anthocyanin uptake, Gel pH 6.5 ([1]; explant sample 002): 18.5 pmol per mg tissue
- % change 3.5 to 6.5 ([1]; explant sample 003): −16.6%
- Anthocyanin uptake, Gel pH 3.5 ([1]; explant sample 003): 14.4 pmol per mg tissue
- Anthocyanin uptake, Gel pH 6.5 ([1]; explant sample 003): 12.0 pmol per mg tissue
- % change 3.5 to 6.5 ([1]; explant sample 004): 653.5%
- Anthocyanin uptake, Gel pH 3.5 ([1]; explant sample 004): 1.6 pmol per mg tissue
- Anthocyanin uptake, Gel pH 6.5 ([1]; explant sample 004): 12.0 pmol per mg tissue
- % change 3.5 to 6.5 ([1]; explant sample 005): 65.3%
- Anthocyanin uptake, Gel pH 3.5 ([1]; explant sample 005): 32.0 pmol per mg tissue
- Anthocyanin uptake, Gel pH 6.5 ([1]; explant sample 005): 52.9 pmol per mg tissue
- % change 3.5 to 6.5 ([1]; explant sample 006): 91.3%
- Anthocyanin uptake, Gel pH 3.5 ([1]; explant sample 006): 31.5 pmol per mg tissue
- Anthocyanin uptake, Gel pH 6.5 ([1]; explant sample 006): 60.3 pmol per mg tissue
- % change 3.5 to 6.5 ([1]; explant sample 007): 34.5%
- Anthocyanin uptake, Gel pH 3.5 ([1]; explant sample 007): 17.0 pmol per mg tissue
- Anthocyanin uptake, Gel pH 6.5 ([1]; explant sample 007): 22.8 pmol per mg tissue
- % change 3.5 to 6.5 ([1]; explant sample 008): −40.7%
- Anthocyanin uptake, Gel pH 3.5 ([1]; explant sample 008): 33.2 pmol per mg tissue
- Anthocyanin uptake, Gel pH 6.5 ([1]; explant sample 008): 19.7 pmol per mg tissue
- % change 3.5 to 6.5 ([1]; explant sample 009): 113.9%
- Anthocyanin uptake, Gel pH 3.5 ([1]; explant sample 009): 21.2 pmol per mg tissue
- Anthocyanin uptake, Gel pH 6.5 ([1]; explant sample 009): 45.3 pmol per mg tissue
- % change 3.5 to 6.5 ([1]; explant sample 010): −66.9%
- Anthocyanin uptake, Gel pH 3.5 ([1]; explant sample 010): 13.9 pmol per mg tissue
- Anthocyanin uptake, Gel pH 6.5 ([1]; explant sample 010): 4.6 pmol per mg tissue
- % change 3.5 to 6.5 ([1]; explant sample 011): −60.1%
- Anthocyanin uptake, Gel pH 3.5 ([1]; explant sample 011): 18.9 pmol per mg tissue
- Anthocyanin uptake, Gel pH 6.5 ([1]; explant sample 011): 7.5 pmol per mg tissue

From patent publication US20100047371A1, “COMPOSITIONS AND METHODS FOR ORAL CANCER CHEMOPREVENTION USING BERRY PREPARATIONS AND EXTRACTS” (priority 2006, published 2010)
